Laboratory results from publication PMC6201879, “N-substituted phenylbenzamides of the niclosamide chemotype attenuate obesity related changes in high fat diet fed mice” (PLoS ONE, 2018).
Values joined by “and” are separate entries in the source; they are usually repeats but may differ in a detail not shown here. Identical values can stand only once. “Also recorded” adds a separate entry of the source. Like-named read-outs stand apart in the source and are kept apart here.

Experiments:
[1] = test system: Salmonella typhimurium TA98; experiment: Ames assay, strain TA98; conditions: Positive Control chemical; concentration not given; without S9
PH5CH8 liver cells = experiment: High-throughput hepatic de novo lipogenesis (DNL) assay, high content imaging of steatotic phenotype; type: cell-based, human
[2] = test system: HEK293 cells stably transduced with the human OCT3 transporter; experiment: Cellular oxygen consumption rate (OCR), MitoXpress Xtra; type: cell-based; conditions: HEK293 cells expressing human OCT3; for change in respiration / oxygen consumption rate (OCR): compared to DMSO control, 2 hours; for concentration dependence of OCR change: four concentrations
Protocol: Oxygen consumption rate experiments were performed by ZenBio, Inc (RTP, NC). HEK293 cells stably transduced with the human OCT3 transporter were plated in black-walled microclear plates (Greiner-BioOne) at 60,000 cells per well in growth medium. Cells were incubated overnight to allow attachment before growth medium was removed and replaced with 150μL of assay medium containing compound dilutions. Four concentrations of each compound were prepared and transferred to the empty wells. Control wells contained assay medium only or assay medium containing […] (FCCP) at 1μM. Ten μL of MitoXpress Xtra reagent was added to each test well and 100μL of pre-warmed mineral oil was overlaid in each well to create a seal. The plates were immediately read on a FLUOstar Omega (BMG) using dual read Time Resolved Fluorescence (TR-F) for 2 hours, with measurements taken every 2 minutes using 340nm and 650nm as excitation and emission wavelengths respectively. For lifetime analysis, two measurements per well were taken: 1) delay of 30μs, with a window of 30μs; and 2) delay of 70μs with a window of 30μs. Background TRF values were subtracted from all readings. A ratiometric analysis was performed to determine changes in the Lifetime fluorescence signal: Lifetime (μs)[T] = (D2-D1)/ln(W1/W2), where D is delay; W is fluorescence window value at each time point. Lifetime slopes were calculated using each Lifetime measurement over time. Data are presented as mean ± standard error (SE). The differences between the control (DMSO) and compound treated wells were analyzed using the Student’s t-test. A value of p≤0.05 was considered statistically significant. […]

[3] = test system: Phosphorylated AMPK (Thr-172); experiment: High-throughput phosphorylated AMPK (Thr-172) TR-FRET assay in HepG2 cells; type: cell-based, human; conditions: HepG2 TR-FRET dose response between 0.625 and 10 μM, 4 hours; also Western blot
Protocol: Phosphorylated AMPK (Thr-172) TR-FRET Assay Kit was purchased from CisBio (Bedford MA). HepG2 [HB-8065] cells were trypsinized, harvested and counted using Countess II FL automated cell counter (Thermo Fisher Scientific). Cells were then seeded in Poly-D-Lysine coated 96-well black optical plates at a concentration of 10,000 cells per well in 50μL growth medium. After 24-hours, the media was removed and replaced with 50μL of fresh growth media containing compounds. Five concentrations of each compound were prepared, ranging from 10 to 0.625 μM and applied to columns 2–11 of the cell plate. Control wells contained DMSO (column 1-minimum response control) or 500199 (column 12-maximum response control). The final DMSO concentration was 0.45%. Cells were cultured for 4 hours before cells were lysed in 50μL of lysis buffer for 30 minutes at room temperature according to assays protocol. Following lysis, 16μL of lysate was transferred to white 384 well small volume assay plate and 4μL of antibody dyes were added per assay protocol.
Following overnight incubation, quantitation was performed on a PHERAstar (BMG), using the HTRF protocol with an excitation wavelength of 337nm and emission wavelengths of 665nm and 620nm. The ratio between emission spectra (665/620) was assessed for each well individually and averaged for triplicate samples. Data are presented as mean ratio ± SE. The differences between the control (DMSO) and the compound treated wells were analyzed using two-way ANOVA and Dunnett’s post hoc test. A value of p<0.05 was considered to be significant.
Fig 5 Validation of AMPK pathway activation by phenylbenzamide derivatives in HepG2 cells. A) Cells were seeded at 10,000 cells per well 24 hours prior to treating cells with indicated concentration of compound or DMSO (CTL) for 4 hours. 16μL of cell lysate was incubated with HTRF phospho-AMPK detection reagents and fluorescence emission read at 665nm and 620nm using a PHERAstar platereader. The mean and standard deviation of the HTRF Ratio from three replicate wells is shown. The unstimulated (DMSO) and positive controls lysates are shown in green and red respectively.

[4] = test system: phospho-AMPK Thr-172 (p-AMPK); experiment: Western blot of phospho-AMPK Thr-172 in HEK293T cells; type: cell-based, human; conditions: 1 and 10μM, negatives re-screened at 5 and 20 μM, 3 hours
Protocol: AMPK is a metabolic sensor that maintains cellular energy supply. As validation of these changes in lipid metabolism and cellular respiration we evaluated phospho-AMPK Thr-172 (p-AMPK) levels by Western blot in HEK293 cells treated with the phenylbenzamide derivatives. Compounds were screened at 1 and 10μM using the known uncouplers niclosamide and FCCP as positive controls (Fig 4A). […] We concluded that compounds that had little effect on oxygen consumption rates also had little effect on phosphorylation of AMPK.

[5] = Metabolic stability in human liver microsomes; type: in vitro ADME
Protocol: (§1) Three experiments were performed with 1) 0.5mg/ml microsomes and 1mM NADPH, 2) 0.5mg/ml microsomes without NADPH and 3) 0.5mg/ml heat inactivated microsomes without NADPH in 100mM phosphate buffer, containing 5mM magnesium chloride. […] At the indicated time points, 50μl samples were removed and stopped by addition of 4 volumes of cold acetonitrile with internal standards, 100nM alprazolam, 200nM labetalol and 2μM ketoprofen. The samples were centrifuged at 3,220 g for 40 minutes and aliquots of 100μl were subsequently diluted with 100μl of ultra-pure water and analyzed by LC/MS/MS using a (Shimadzu corporation) LC system coupled to a Shimadzu Triple Quad 5500 mass spectrometer with an ESI interface. The LC system used a Waters XSelect HSS T3 C18, 2.5μm, 2.1 x 50 mm column eluted with one of two methods using mobile phases A (water, 0.1% formic acid) and B (acetonitrile, 0.1% formic acid). […] The Shimadzu Triple Quad 5500 MS was operated with the following parameters: Ion source: Turbo spray; Ionization mode: ESI; Scan type: MRM; Collision gas: 10 L/min; Curtain gas: 30 L/min; Nebulize gas: 50 L/min; Auxiliary gas: 50 L/min; Temperature: 500°C; Ionspray voltage: +5500 V (positive MRM). All experiments were performed in duplicate. Data were analyzed using Microsoft excel, and peak areas were determined from extracted ion chromatograms.

[6] = Metabolic stability in mouse liver microsomes; type: in vitro ADME; conditions: 60 min
Protocol: as §1

[7] = test system: Salmonella typhimurium TA1537; conditions: Positive Control chemical; concentration not given; without S9
[8] = test system: Salmonella typhimurium TA100; conditions: Positive Control chemical; concentration not given; without S9
[9] = test system: Salmonella typhimurium TA1535; conditions: Positive Control chemical; concentration not given; without S9
[10] = S1 Table, SAR for N-Substituted Phenylbenzamides
[11] = S1 Table, SAR for N-Substituted Phenylbenzamides, read-out: IC50
[12] = Homo sapiens, PH5CH8 liver cells, 10-point dose response between 1μM and 1.9nM, read-out: IC50 (uM), inhibition of steatotic phenotype in DNL assay
[13] = Homo sapiens, S1 Table. SAR for N-Substituted Phenylbenzamides, read-out: IC50
[14] = S1 Table. SAR for N-Substituted Phenylbenzamides
[15] = Homo sapiens, S1 Table, SAR for N-Substituted Phenylbenzamides, read-out: IC50
[16] = 0.5mg/ml microsomes and 1mM NADPH
[17] = 0.5mg/ml microsomes without NADPH
[18] = heat inactivated microsomes without NADPH

## O=[N+]([O-])c1ccc2c(c1)Cc1ccccc1-2 [Compound 2-NF, 2-nitrofluorene, reference compound]
[1]
  Mean Revertant Colony Counts TA98 S9-: 210.0 and 258.7

## COC(=O)c1ccc(NC(=O)c2cc(Cl)ccc2O)c(Cl)c1 [Compound 500189, Methyl 3-chloro-4-[(5-chloro-2-hydroxybenzene)amido]benzoate]
PH5CH8 liver cells; [10]
  Active/Inactive: Inactive

## COC(=O)c1ccc(NC(=O)c2cc(C)ccc2O)c(Cl)c1 [Compound 500828, Methyl 3-chloro-4-[(2-hydroxy-5-methylbenzene)amido]benzoate]
PH5CH8 liver cells; [10]
  Active/Inactive: Active
PH5CH8 liver cells; [11]
  IC50: 1.68 µM

## O=C(Nc1ccc(Br)cc1Cl)c1cc(Cl)ccc1O [Compound 500832, N-(4-Bromo-2-chlorophenyl)-5-chloro-2-hydroxybenzamide]
PH5CH8 liver cells; [12]
  IC50: 0.08 µM
PH5CH8 liver cells; [13]
  IC50: 0.0203 µM
PH5CH8 liver cells; [14]
  Active/Inactive: Active
[2]
  change in respiration / oxygen consumption rate (OCR): significant changes
  concentration dependence of OCR change: only significantly elevated at 1μM
[3]
  phosphorylation of AMPK (Figs 5 and 4D): stimulated phosphorylation of AMPK

## N#Cc1ccc(NC(=O)c2cc(Cl)ccc2O)c(Cl)c1 [Compound 500833, 5-Chloro-N-(2-chloro-4-cyanophenyl)-2-hydroxybenzamide]
PH5CH8 liver cells; [12]
  IC50: 0.04 µM
PH5CH8 liver cells; [13]
  IC50: 0.043 µM
PH5CH8 liver cells; [14]
  Active/Inactive: Active
[2]
  change in respiration / oxygen consumption rate (OCR): significant changes
  concentration dependence of OCR change: only significantly elevated at 1μM
[3]
  phosphorylation of AMPK (Figs 5 and 4D): stimulated phosphorylation of AMPK

## COC(=O)c1ccc(NC(=O)c2cc(C(F)(F)F)ccc2O)c(Cl)c1 [Compound 500844, Methyl 3-chloro-4-{[2-hydroxy-5-(trifluoromethyl)benzene]amido}benzoate]
PH5CH8 liver cells; [10]
  Active/Inactive: Active
PH5CH8 liver cells; [11]
  IC50: 0.07 µM

## COC(=O)c1ccc(NC(=O)c2cccc(C(C)(C)C)c2O)c(Cl)c1 [Compound 600489, Methyl 4-(3-tert-butyl-2-hydroxybenzamido)-3-chlorobenzoate]
PH5CH8 liver cells; [12]
  IC50: 0.01 µM
PH5CH8 liver cells; [15]
  IC50: 0.014 µM
PH5CH8 liver cells; [10]
  Active/Inactive: Active
[2]
  change in respiration / oxygen consumption rate (OCR): no change in respiration; also recorded: no effect on oxygen consumption rate
[4]
  phosphorylation of AMPK (p-AMPK Thr-172) by Western blot: stimulated phosphorylation of AMPK only at the highest concentration
[5]; [16]
  Remaining Percentage of 60 min (%), Human, Tested Sample: 3.1%
[5]; [17]
  Remaining Percentage of 60 min (%), Human, Negative Control: 3.8%
[5]; HLM and MLM, 60 min
  microsomal stability: completely degraded
[5]; [18]
  Remaining Percentage of 60 min (%), Human, Heat-inactivated Control: 66.6%
[6]; [16]
  Remaining Percentage of 60 min (%), Mouse, Tested Sample: 2.7%
[6]; [17]
  Remaining Percentage of 60 min (%), Mouse, Negative Control: 4.1%
[6]; [18]
  Remaining Percentage of 60 min (%), Mouse, Heat-inactivated Control: 57.6%

## COC(=O)c1ccc(NC(=O)c2cc(C(F)(F)F)ccc2O)c(Br)c1 [Compound 600653, Methyl 4-(2-hydroxy-5-[trifluoromethyl]benzamido)-3-bromobenzoate]
PH5CH8 liver cells; [12]
  IC50: 0.27 µM
PH5CH8 liver cells; [15]
  IC50: 0.267 µM
PH5CH8 liver cells; [10]
  Active/Inactive: Active
[2]
  change in respiration / oxygen consumption rate (OCR): significant changes
  concentration dependence of OCR change: dose dependent increase in OCR
[3]
  phosphorylation of AMPK (Figs 5 and 4D): stimulated phosphorylation of AMPK

## COc1ccc(O)c(C(=O)Nc2ccc(C(=O)O)cc2C)c1 [Compound 600657, 4-(2-Hydroxy-5-methoxybenzamido)-3-methylbenzoic Acid]
PH5CH8 liver cells; [10]
  Active/Inactive: Active
[2]
  change in respiration / oxygen consumption rate (OCR): no change in respiration; also recorded: did not appear to stimulate phosphorylation of AMPK or increase oxygen consumption rate
[4]
  phosphorylation of AMPK (p-AMPK Thr-172) by Western blot: no detectable changes in pAMPK levels

## N#CC(C#N)=NNc1ccc(OC(F)(F)F)cc1 [FCCP, carbonyl cyanide-p-trifluoromethoxyphenylhydrazone, reference compound]
[2]
  change in respiration / oxygen consumption rate (OCR): increased OCR

## COc1ccc2nc3cc(Cl)ccc3c(NCCCNCCCl)c2c1 [ICR-191, reference compound]
[7]
  Mean Revertant Colony Counts TA-1537 S9-: 72.3 and 73.0

## [N-]=[N+]=[N-].[Na+] [SA, Sodium Azide, reference compound]
[8]
  Mean Revertant Colony Counts TA-100 S9-: 133.7 and 120.0
[9]
  Mean Revertant Colony Counts TA-1535 S9-: 103.3

## CCC/C=C/C/C=C/C=C/C=N/NN=O [Triacsin C, reference compound]
PH5CH8 liver cells; PH5CH8, assay validation
  reduced steatosis (steatotic phenotype in DNL assay): 92 ± 19%
